Data as given in PMC4853715, “Design, Synthesis and Antitumor Activity of Novel link-bridge and B-Ring Modified Combretastatin A-4 (CA-4) Analogues as Potent Antitubulin Agents” (Scientific Reports, 2016).

Key:
[1] = tested on: polymerized tubulin in A549 cells; test: Flow cytometry of extracellular polymerized tubulin; type: cell-based, human; conditions: A549, 1 μM, 48 h
Experimental: Then, cells were harvested, washed once with PBS and blocked with 1% BSA for 30 min on ice, then were centrifuged (2800 rpm at 4 °C for 5 minutes) to remove supernatant. After that, cells were incubated with β-tubulin antibody (AT819, Beyotime, China) for 1 h on ice and were centrifuged (2800 rpm at 4 °C for 5 minutes) to remove supernatant. Next, cells were incubated with CY5.5-linked anti-rabbit IgG (A7016, Beyotime, China) on ice for 1 h and were also centrifuged (2800 rpm at 4 °C for 5 minutes) to remove supernatant. Finally, cells were then resuspended in PBS and the expression level of polymerized tubulin was analysed by flow cytometry (BD, USA).

[2] = tested on: HT-29; test: MTT assay, antiproliferative activity; type: cell-based; conditions: Homo sapiens; HT-29, MTT, 48 h, ± SD
Experimental: (§1) The in vitro anticancer activities of the prepared compounds against HepG2, Hela, MCF-7, A549, HT-29 and SSC-4 cell lines were evaluated as described in the literature. Target tumor cells were grown to log phase in DMEM medium supplemented with 10% fetal bovine serum. After reaching a dilution of 1 × 10^5 cells Ml^−1 with the medium, 100 μL of the obtained cell suspension was added to each well of 96-well culture plates. Subsequently, incubation was performed at 37 °C in 5% CO2 atmosphere for 12 h before the cytotoxicity assessment. Tested samples at preset concentrations were added to 6 wells with CA-4 being employed as a positive reference. After 48 h exposure period, 25 μL of PBS containing 2.5 mg mL^−1 of MTT (Sigma, USA) was added to each well. After 4 h, the medium was replaced by 150 μL DMSO to dissolve the purple formazan crystals produced. The absorbance at 570 nm of each well was measured with Synergy™ 2 Multi-Mode Microplate Reader. Cell viability (%) was calculated using the following equation: cell viability (%) = (Atreatment/Acontrol) × 100%. The data represented the mean of three independent experiments in triplicate and were expressed as means ± SD.

[3] = tested on: A549; test: MTT assay, antiproliferative activity; type: cell-based; conditions: Homo sapiens, 48 h, ± SD
Experimental: as §1

[4] = tested on: HepG2; test: MTT assay, antiproliferative activity; type: cell-based; conditions: Homo sapiens, 48 h, ± SD
Experimental: as §1

[5] = tested on: SSC-4; test: MTT assay, antiproliferative activity; type: cell-based; conditions: Homo sapiens; SSC-4, MTT, 48 h, ± SD
Experimental: as §1

[6] = tested on: MCF-7; test: MTT assay, antiproliferative activity; type: cell-based; conditions: Homo sapiens, MCF7; MCF-7, MTT, 48 h, ± SD
Experimental: as §1

[7] = tested on: Hela; test: MTT assay, antiproliferative activity; type: cell-based; conditions: Homo sapiens, 48 h, ± SD
Experimental: as §1

[8] = tested on: interphase microtubules of A549 cells; test: Confocal microscopy assay of microtubule morphology; type: cell-based, human; conditions: A549, 1.0 μM, 48 h
Experimental: After incubating for 48 h, A549 cells were washed with PBS for three times and fixed with 4% paraformaldehyde for 20 min, permeabilized with cold methanol for another 10 min. After that, the cells were blocked with 5% BSA for 1 h. Subsequently, the cells were washed with PBS, and incubated with anti-tubulin antibody in 3% BSA (1:200 Cytoskeleton, Inc.) overnight at 4 °C. After being washed with PBS for three times, each cover slip was added 200 μL of Cy3-labeled goat anti-mouse IgG (H + L) in 3% BSA (1:500, Cytoskeleton, Inc.) and incubated for 1 h at room temperature. At last, A549 cells was stained with 200 μL of DAPI for 5 min and observed under an confocal microscope (Olympus, USA).

[9] = tested on: Tubulin isolated from porcine brain tissue; test: Tubulin polymerization assay (kit, absorbance 340 nm); type: biochemical; conditions: 8.0 μM, 37 °C
Experimental: Tubulin polymerization was determined with the tubulin polymerization assay kit (Cytoskeleton, Denver, CO which was purchased from Cytoskeleton, Beyotime, China. Tubulin isolated from porcine brain tissue was used in this commercial kit.) It is based on the principal that light is scattered by microtubules to an extent that is proportional to the concentration of the microtubule polymer. Compounds that interact with tubulin will alter the polymerization of tubulin, and this can be detected using a spectrophotometer. Tubulin polymerization dynamics was monitored through measuring the change of absorbance at 340 nm every 2 min for 30 min at 37 °C on a spectrophotometer (Perkin-Elmer).

[10] = tested on: Bovine brain tubulin; test: Effects on tubulin polymerization (turbidimetric assembly); type: biochemical; conditions: 10 μM tubulin, 30 °C, 20 min incubation; read-out: Tubulin inhibition IC50
Experimental: Bovine brain tubulin was purified as described previously. To evaluate the effect of the compounds on tubulin assembly in vitro, compounds of varying concentrations were preincubated with 10 μM tubulin in glutamate buffer at 30 °C and then cooled to 0 °C. After addition of GTP, the mixtures were transferred to 0 °C cuvettes in a recording BioTek Synergy 4 multifunction microplate spectrophotometer and warmed up to 30 °C and the assembly of tubulin was observed turbidimetrically (TU660, USA).

[11] = target: colchicine-binding site of tubulin; test: [3H] Colchicine-tubulin binding assay; conditions: 37 °C, 60 min; read-out: IC50, competition with [3H]colchicine binding to tubulin
Experimental: One micromolar radiolabeled colchicine [ring C, Methoxy-^3H] (Perkin-Elmer), 1% DMSO and various concentrations of test compounds in 50 μL G-PEM buffer containing 80 mmol/L PIPES (pH 6.8), 1 mmol/L EGTA, 1 mmol/L MgCl2 and 1 mmol/L GTP, and 5% glycerol were incubated with […] (>99% pure,; Cytoskeleton, Inc.; 0.2 mg/mL) at 37 °C for 60 min. The binding solutions were filtered through a stack of 2 DEAE-cellulose filters and washed twice. The radioactivity in the filtrates was determined by liquid scintillation spectrometry (Perkin-Elmer Wallac). Nonlinear regression was used to analyze the data using GraphPad Prism.

[12] = tested on: A549 xenograft tumor; test: In vivo anti-tumor activity, A549 xenograft; design: species or system BALB/c nude mice; conditions: CA-4P group, 30 mg/kg or 15 mg/kg
Experimental: Mice were subcutaneously inoculated with injections of 5.0 × 10^6 cells/nude mice. After 12–14 days, tumor sizes were determined using micrometer calipers, and then nude mice with similar tumor volume (~100 mm^3, eliminate mice with tumors that are too large or too small) were randomly divided them into four groups (with six nude mice/group). […] Both drugs, as well as the vehicle control, were administered every other day for the entire period of observation.
Male BALB/c nude mice, five weeks old and weighing 18–22 g, were supplied by Shanghai Laboratory Animal Limited Company. The mice were raised in air-conditioned rooms under controlled lighting (12 h light-dark cycle at 24 °C) and were fed with standard laboratory food and water ad libitum. Before injection into the mice, the A549 cells were harvested by trypsinization and washed three times with cold serum-free medium and then injected in a total volume of 0.1 mL using a 1 mL latex-free syringe (BD) within 30 min of harvest. Mice were inoculated subcutaneously with A549 cells (5.0 × 10^6) on their shoulders. […] The control group received 0.9% normal saline. Tumor size was measured once every 2 days in two per-pendicular dimensions with Vernier calipers and converted to tumor volume (TV) using the formula: (ab^2)/2, where a and b refer to the longer and shorter dimensions, respectively. The body weight of the animals was measured twice a week to assess toxicity of the treatments at the same time as the tumor dimension measurement and the mortality was monitored daily. After the treatments for eight weeks, the animals were euthanized by cervical dislocation. This study conformed to the Guide for the Care and Use of Laboratory Animals as published by the US National Institutes of Health and was approved by the Institutional Ethics Review Board of Nanjing University.

| Structure (SMILES) | microtubule assembly (polymerized tubulin, curve shift versus control) [1] | IC50 [2] [µM] | IC50 [3] [µM] | IC50 [4] [µM] | IC50 [5] [µM] | IC50 [6] [µM] | IC50 [7] [µM] | microtubule morphology [8] | tubulin polymerization (in words) [9] | IC50 [10] [µM] | IC50 [11] [µM] | tumor growth reduction versus vehicle at end of observation ([12]; every other day) [%] | average weight of the excised tumors ([12]; control group 1.802 g) [g] |
| --- | --- | --- | --- | --- | --- | --- | --- | --- | --- | --- | --- | --- | --- |
| COc1ccc(/C=C\c2cc(OC)c(OC)c(OC)c2)cc1O [CA-4, combretastatin A-4] | […] | 15.6 ± 0.06 | 0.13 ± 0.02 | 0.46 ± 0.07 | 27.2 ± 1.78 | 0.81 ± 0.11 | 5.52 ± 0.82 | disorganized interphase microtubules | nearly completely blocked | […] | 4.96 |  |  |
| COc1ccc(/C=C\c2cc(OC)c(OC)c(OC)c2)cc1OP(=O)(O)O [CA-4P, fosbretabulin, reference compound] |  |  |  |  |  |  |  |  |  |  |  | 39 | 1.102 |
| COc1cc(/C=N/NC(=O)c2cn(C)c3ccccc23)cc(OC)c1OC [Compound 4] |  | 26.7 ± 1.89 | 0.29 ± 0.04 | 2.43 ± 0.23 | 43.2 ± 3.98 | 3.21 ± 0.76 | 8.45 ± 1.87 |  |  | 14.8 |  |  |  |
| CCn1cc(C(=O)N/N=C/c2cc(OC)c(OC)c(OC)c2)c2ccccc21 [Compound 5] |  | 56.8 ± 2.1 | 1.18 ± 0.11 | 10.6 ± 1.98 | 55.2 ± 3.48 | 14.2 ± 1.11 | 23.8 ± 2.23 |  |  | 23.4 |  |  |  |
| CCCn1cc(C(=O)N/N=C/c2cc(OC)c(OC)c(OC)c2)c2ccccc21 [Compound 6] |  | 70 ± 3.76 | 9.89 ± 1.16 | 39 ± 3.23 | 79.9 ± 2.78 | 28.9 ± 3.23 | 56.9 ± 4.89 |  |  | 55.7 |  |  |  |
| COc1cc(C(=O)/C=C\c2cn(C)c3ccccc23)cc(OC)c1OC [Compound 10] |  | 44.5 ± 2.87 | 12.1 ± 1.2 | 19.6 ± 1.98 | 43.2 ± 3.3 | 29.9 ± 3.21 | 23.9 ± 5.89 |  |  | 49.9 |  |  |  |
| CCn1cc(/C=C\C(=O)c2cc(OC)c(OC)c(OC)c2)c2ccccc21 [Compound 11] |  | 49.9 ± 6.98 | 27.9 ± 6.71 | 27.8 ± 2.23 | 57.8 ± 4.67 | 45.5 ± 5.67 | 34.2 ± 1.19 |  |  | 125 |  |  |  |
| CCCn1cc(/C=C\C(=O)c2cc(OC)c(OC)c(OC)c2)c2ccccc21 [Compound 12] |  | 78.9 ± 3.51 | 37.9 ± 3.61 | 53.9 ± 2.81 | 90 ± 9.98 | 69.8 ± 5.43 | 67.9 ± 4.47 |  |  | > 200 |  |  |  |
| COc1cc(C(=O)/C=C\c2cn(Cc3ccccc3)c3ccccc23)cc(OC)c1OC [Compound 13] |  | 34.7 ± 5.34 | 2.78 ± 0.92 | 2.98 ± 0.34 | 25.7 ± 2.78 | 4.54 ± 0.96 | 4.78 ± 1.43 |  |  | 24.8 |  |  |  |
| COc1cc(NC(=O)c2cn(C)c3ccccc23)cc(OC)c1OC [Compound 16] |  | 46.4 ± 2.83 | 17.6 ± 1.9 | 17.5 ± 1.46 | 45.5 ± 2.6 | 27.4 ± 2.41 | 26.8 ± 6.81 |  |  | 46.8 |  |  |  |
| CCn1cc(C(=O)Nc2cc(OC)c(OC)c(OC)c2)c2ccccc21 [Compound 17] |  | 39.4 ± 3.45 | 26.5 ± 6.2 | 28.3 ± 3.33 | 47.2 ± 4.33 | 48.3 ± 6.58 | 35.7 ± 2.34 |  |  | > 200 |  |  |  |
| CCCn1cc(C(=O)Nc2cc(OC)c(OC)c(OC)c2)c2ccccc21 [Compound 18] |  | 82.2 ± 3.7 | 40.2 ± 4.41 | 62.8 ± 3.65 | 90.3 ± 6.76 | 59.8 ± 3.43 | 77.4 ± 5.78 |  |  | > 200 |  |  |  |
| COc1cc(NC(=O)c2cn(Cc3ccccc3)c3ccccc23)cc(OC)c1OC [Compound 19] |  | 32.7 ± 3.31 | 2.69 ± 0.4 | 3.68 ± 0.36 | 29.5 ± 3.42 | 3.61 ± 0.46 | 5.74 ± 1.06 |  |  | 19.9 |  |  |  |
| COc1cc2c(c(OC)c1OC)-c1ccc(OC)c(=O)cc1[C@@H](NC(C)=O)CC2 [colchicine] |  |  |  |  |  |  |  | depolymerization and solubilization |  |  |  |  |  |
| CC(=O)O[C@H]1C(=O)[C@@]2(C)[C@H]([C@H](OC(=O)c3ccccc3)[C@]3(O)C[C@H](OC(=O)[C@H](O)[C@@H](NC(=O)c4ccccc4)c4ccccc4)C(C)=C1C3(C)C)[C@]1(OC(C)=O)CO[C@@H]1C[C@@H]2O [paclitaxel] |  |  |  |  |  |  |  | substantial stabilization of microtubules |  |  |  |  |  |
